Measured values reported in US9695155B2, “Herbicidal substituted pyrimidinyloxy benzene compounds” (E. I. DU PONT DE NEMOURS AND COMPANY, priority 2013, dated 2017).

Experiments:
sedge, umbrella = test: Test B flooded paddy test; assay type: in vivo, Cyperus difformis; details: Flood, 250 g ai/ha; 0 to 100 scale where 0 is no effect and 100 is complete control
Procedure, shortened: (§1)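 Flooded to 3 cm at the 2-leaf stage, pots received compound through the paddy water and were kept at that depth under greenhouse conditions. After 13–15 days, effect was rated by eye relative to controls, 0 = none and 100 = complete control.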

pigweed [1] = test: Test A preemergence; assay type: in vivo, Amaranthus retroflexus; details: for Pigweed plant response rating: 500 g ai/ha
Procedure, shortened: (§2)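 Visual 0–100 rating (100 = complete control) taken about 10 d post-treatment relative to untreated checks. Preemergence: directed soil spray on sown loam/sand pots. Postemergence: seedlings 2–10 cm, 1–2 leaf. Non-phytotoxic solvent formulation with surfactant.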

corn [2] = test: Test A preemergence; assay type: in vivo, Zea mays; details: for Corn plant response rating: 500 g ai/ha
Procedure, shortened: as §2

corn [3] = test: Test A postemergence; assay type: in vivo, Zea mays
Procedure, shortened: as §2

large (Lg) crabgrass [4] = test: Test A postemergence; assay type: in vivo, Digitaria sanguinalis
Procedure, shortened: as §2

barnyardgrass [5] = test: Test A postemergence; assay type: in vivo, Echinochloa crus-galli
Procedure, shortened: as §2

rice = test: Test B flooded paddy test; assay type: in vivo, Oryza sativa; details: Flood, 250 g ai/ha; 0 to 100 scale where 0 is no effect and 100 is complete control
Procedure, shortened: as §1

giant foxtail [6] = test: Test A postemergence; assay type: in vivo, Setaria faberii
Procedure, shortened: as §2

velvetleaf [7] = test: Test A preemergence; assay type: in vivo, Abutilon theophrasti; details: for Velvetleaf plant response rating: 500 g ai/ha
Procedure, shortened: as §2

wheat [8] = test: Test A preemergence; assay type: in vivo, Triticum aestivum; details: for Wheat plant response rating: 500 g ai/ha
Procedure, shortened: as §2

velvetleaf [9] = test: Test A postemergence; assay type: in vivo, Abutilon theophrasti
Procedure, shortened: as §2

pigweed [10] = test: Test A postemergence; assay type: in vivo, Amaranthus retroflexus
Procedure, shortened: as §2

wheat [11] = test: Test A postemergence; assay type: in vivo, Triticum aestivum
Procedure, shortened: as §2

barnyardgrass [12] = test: Test A preemergence; assay type: in vivo, Echinochloa crus-galli; details: for Barnyardgrass plant response rating: 500 g ai/ha
Procedure, shortened: as §2

giant foxtail [13] = test: Test A preemergence; assay type: in vivo, Setaria faberii; details: for Foxtail, Giant plant response rating: 500 g ai/ha
Procedure, shortened: as §2

Heteranthera limosa = test: Test B flooded paddy test; assay type: in vivo; details: Flood, 250 g ai/ha; 0 to 100 scale where 0 is no effect and 100 is complete control
Procedure, shortened: as §1

large (Lg) crabgrass [14] = test: Test A preemergence; assay type: in vivo, Digitaria sanguinalis; details: for Crabgrass, Large plant response rating: 500 g ai/ha
Procedure, shortened: as §2

barnyardgrass [15] = test: Test B flooded paddy test; assay type: in vivo, Echinochloa crus-galli; details: Flood, 250 g ai/ha; 0 to 100 scale where 0 is no effect and 100 is complete control
Procedure, shortened: as §1

morningglory [16] = test: Test A postemergence; assay type: in vivo, Ipomoea spp.
Procedure, shortened: as §2

morningglory [17] = test: Test A preemergence; assay type: in vivo, Ipomoea spp.; details: for Morningglory plant response rating: 500 g ai/ha
Procedure, shortened: as §2

[18] = 125 g ai/ha, 0 to 100 scale where 0 is no effect and 100 is complete control
[19] = 0 to 100 scale, 0 no effect, 100 complete control, approx. 10 days
[20] = 500 g ai/ha, 0 to 100 scale, 0 no effect, 100 complete control
[21] = 0 to 100 scale where 0 is no effect and 100 is complete control
[22] = 500 g ai/ha, 0 to 100 scale where 0 is no effect and 100 is complete control

O=Cc1cccc(Oc2ncc(Cl)cn2)c1-n1cc(Br)cn1 [Compound 61]
30: Pigweed plant response rating (pigweed [1]; [19]) | Plant response rating, Velvetleaf (velvetleaf [9]; [20])
20: Plant response rating, Velvetleaf (velvetleaf [9]; [18]) | Barnyardgrass plant response rating (barnyardgrass [12]; [19]) | Crabgrass, Large plant response rating (large (Lg) crabgrass [14]; [19])
0: Plant response rating, Sedge, Umbrella (sedge, umbrella) | Plant response rating, Pigweed (pigweed [1]; [18]) | Plant response rating, Corn (corn [2]; [18]) | Corn plant response rating (corn [2]; [19]) | Plant response rating, Corn (corn [3]; [18]) | Plant response rating, Corn (corn [3]; [20]) | Plant response rating, Crabgrass, Large (large (Lg) crabgrass [4]; [18]) | Plant response rating, Crabgrass, Large (large (Lg) crabgrass [4]; [20]) | Plant response rating, Barnyardgrass (barnyardgrass [5]; [18]) | Plant response rating, Barnyardgrass (barnyardgrass [5]; [20]) | Plant response rating, Rice (rice) | Plant response rating, Foxtail, Giant (giant foxtail [6]; [18]) | Plant response rating, Foxtail, Giant (giant foxtail [6]; [20]) | Plant response rating, Velvetleaf (velvetleaf [7]; [18]) | Velvetleaf plant response rating (velvetleaf [7]; [19]) | Plant response rating, Wheat (wheat [8]; [18]) | Wheat plant response rating (wheat [8]; [19]) | Plant response rating, Pigweed (pigweed [10]; [18]) | Plant response rating, Pigweed (pigweed [10]; [20]) | Plant response rating, Wheat (wheat [11]; [18]) | Plant response rating, Wheat (wheat [11]; [20]) | Plant response rating, Barnyardgrass (barnyardgrass [12]; [18]) | Plant response rating, Foxtail, Giant (giant foxtail [13]; [18]) | Foxtail, Giant plant response rating (giant foxtail [13]; [19]) | Plant response rating, Ducksalad (Heteranthera limosa) | Plant response rating, Crabgrass, Large (large (Lg) crabgrass [14]; [18]) | Plant response rating, Barnyardgrass (barnyardgrass [15]) | Plant response rating, Morningglory (morningglory [16]; [18]) | Plant response rating, Morningglory (morningglory [16]; [20]) | Plant response rating, Morningglory (morningglory [17]; [18]) | Morningglory plant response rating (morningglory [17]; [19])

Brc1cnc(Oc2ccccc2-n2cc(Br)c(Br)n2)nc1 [Compound 24]
0: Plant response rating, Pigweed (pigweed [1]; [18]) | Pigweed plant response rating (pigweed [1]; [19]) | Plant response rating, Corn (corn [2]; [18]) | Corn plant response rating (corn [2]; [19]) | Plant response rating, Corn (corn [3]; [18]) | Plant response rating, Corn (corn [3]; [20]) | Plant response rating, Crabgrass, Large (large (Lg) crabgrass [4]; [18]) | Plant response rating, Crabgrass, Large (large (Lg) crabgrass [4]; [20]) | Plant response rating, Barnyardgrass (barnyardgrass [5]; [18]) | Plant response rating, Barnyardgrass (barnyardgrass [5]; [20]) | Plant response rating, Foxtail, Giant (giant foxtail [6]; [18]) | Plant response rating, Foxtail, Giant (giant foxtail [6]; [20]) | Plant response rating, Velvetleaf (velvetleaf [7]; [18]) | Velvetleaf plant response rating (velvetleaf [7]; [19]) | Plant response rating, Wheat (wheat [8]; [18]) | Wheat plant response rating (wheat [8]; [19]) | Plant response rating, Velvetleaf (velvetleaf [9]; [20]) | Plant response rating, Pigweed (pigweed [10]; [18]) | Plant response rating, Wheat (wheat [11]; [18]) | Plant response rating, Wheat (wheat [11]; [20]) | Plant response rating, Barnyardgrass (barnyardgrass [12]; [18]) | Barnyardgrass plant response rating (barnyardgrass [12]; [19]) | Plant response rating, Foxtail, Giant (giant foxtail [13]; [18]) | Foxtail, Giant plant response rating (giant foxtail [13]; [19]) | Plant response rating, Ducksalad (Heteranthera limosa) | Plant response rating, Crabgrass, Large (large (Lg) crabgrass [14]; [18]) | Crabgrass, Large plant response rating (large (Lg) crabgrass [14]; [19]) | Plant response rating, Barnyardgrass (barnyardgrass [15]) | Plant response rating, Morningglory (morningglory [16]; [18]) | Plant response rating, Morningglory (morningglory [16]; [20]) | Plant response rating, Morningglory (morningglory [17]; [18]) | Morningglory plant response rating (morningglory [17]; [19])
60: Plant response rating, Sedge, Umbrella (sedge, umbrella) | Plant response rating, Pigweed (pigweed [10]; [20])
35: Plant response rating, Rice (rice)

N#Cc1cc(F)cc(Oc2ncc(Br)cn2)c1-n1cc(Br)cn1 [Compound 239]
60: Plant response rating, Velvetleaf (velvetleaf [9]; [22])
50: Velvetleaf plant response rating (velvetleaf [9]; [18])
65: Plant response rating, Ducksalad (Heteranthera limosa)
90: Pigweed plant response rating (pigweed [10]; [18]) | Foxtail, Giant plant response rating (0 to 100 scale) (giant foxtail [13]; 125 g ai/ha)
70: Plant response rating, Sedge, Umbrella (sedge, umbrella) | Plant response rating, Crabgrass, Large (large (Lg) crabgrass [4]; [22]) | Plant response rating, Foxtail, Giant (giant foxtail [6]; [22])
0: Corn plant response rating (0 to 100 scale) (corn [2]; 125 g ai/ha) | Corn plant response rating (corn [3]; [18]) | Barnyardgrass plant response rating (barnyardgrass [5]; [18]) | Wheat plant response rating (0 to 100 scale) (wheat [8]; 125 g ai/ha) | Wheat plant response rating (wheat [11]; [18]) | Plant response rating, Wheat (wheat [11]; [22]) | Plant response rating, Barnyardgrass (barnyardgrass [15]) | Morningglory plant response rating (0 to 100 scale) (morningglory [17]; 125 g ai/ha)
30: Plant response rating, Rice (rice) | Morningglory plant response rating (morningglory [17]; [21])
40: Morningglory plant response rating (morningglory [16]; [18]) | Plant response rating, Morningglory (morningglory [16]; [22])
80: Plant response rating, Barnyardgrass (barnyardgrass [5]; [22])
100: Pigweed plant response rating (0 to 100 scale) (pigweed [1]; 125 g ai/ha) | Pigweed plant response rating (pigweed [1]; [21]) | Plant response rating, Pigweed (pigweed [10]; [22]) | Barnyardgrass plant response rating (barnyardgrass [12]; [21]) | Foxtail, Giant plant response rating (giant foxtail [13]; [21]) | Crabgrass, Large plant response rating (0 to 100 scale) (large (Lg) crabgrass [14]; 125 g ai/ha) | Crabgrass, Large plant response rating (large (Lg) crabgrass [14]; [21])
20: Plant response rating, Corn (corn [3]; [22]) | Foxtail, Giant plant response rating (giant foxtail [6]; [18]) | Velvetleaf plant response rating (velvetleaf [7]; [21]) | Wheat plant response rating (wheat [8]; [21]) | Barnyardgrass plant response rating (0 to 100 scale, 0 is no effect, 100 is complete control) (barnyardgrass [12]; 125 g ai/ha)
10: Corn plant response rating (corn [2]; [21]) | Crabgrass, Large plant response rating (large (Lg) crabgrass [4]; [18]) | Velvetleaf plant response rating (0 to 100 scale) (velvetleaf [7]; 125 g ai/ha)
